{"source": "patent US20230117328A1", "about": "“METHODS TO TREAT CANCER USING (R)-N-(3-FLUORO-4-((3-((1-HYDROXYPROPAN-2-YL)AMINO)-1H-PYRAZOLO[3,4-B]PYRIDIN-4-YL)OXY)PHENYL)-3-(4-FLUOROPHENYL)-1-ISOPROPYL-2,4-DIOXO-1,2,3,4-TETRAHYDROPYRIMIDINE-5-CARBOXAMIDE” (Array BioPharma Inc., priority 2020, published 2023)", "test_system": "female Sprague Dawley rats", "settings": "for ocular histopathology findings, Day 28: 10 rats", "key": {"[1]": {"settings": "100 mg/kg PO QD Days 1-14 (Group 4)"}, "[2]": {"settings": "200 mg/kg PO QD Days 1-14 (Group 5)"}, "[3]": {"settings": "200 mg/kg PO QD Days 1-14 (Group 5), 9 rats"}}, "note": "Where two headings read alike, the source gives them in different places.", "data": [{"compound": "CC(C)n1cc(C(=O)Nc2ccc(Oc3ccnc4[nH]nc(N[C@H](C)CO)c34)c(F)c2)c(=O)n(-c2ccc(F)cc2)c1=O.Cl", "note": "[Compound 1 HCl, (R)—N-(3-fluoro-4-((3-((1-hydroxypropan-2-yl)amino)-1H-pyrazolo[3,4-b]pyridin-4-yl)oxy)phenyl)-3-(4-fluorophenyl)-1-isopropyl-2,4-dioxo-1,2,3,4-tetrahydropyrimidine-5-carboxamide hydrochloride]", "values": [{"measurement": "ocular histopathology findings, Day 56", "setting": "100 mg/kg PO QD Days 1-7 (Group 2), recovery necropsy, 5 rats", "result": "unilateral minimal diffuse atrophy of the ONL which was considered an equivocal change"}, {"measurement": "ocular histopathology findings, Day 28", "setting": "100 mg/kg PO QD Days 1-7 (Group 2; Test Article 1, Schedule 1)", "result": "No test article-related observations"}, {"measurement": "incidence of retinal changes (overall)", "setting": "[1]", "result": "low incidence"}, {"measurement": "reversibility of ocular (retinal) changes", "setting": "[1]", "result": "did not reverse"}, {"measurement": "animals with ocular (retinal) changes, Day 28", "setting": "100 mg/kg PO QD Days 1-14 (Group 4; Test Article 1, Schedule 2), 9 rats", "result": "one animal (4F-7) had moderate atrophy of the outer nuclear layer (ONL) of the retina"}, {"measurement": "ocular histopathology findings, Day 28", "setting": "200 mg/kg PO QD Days 1-7 (Group 3; Test Article 2, Schedule 1)", "result": "No test article-related observations"}, {"measurement": "incidence of retinal changes (overall)", "setting": "[2]", "result": "high incidence"}, {"measurement": "reversibility of ocular (retinal) changes", "setting": "[2]", "result": "did not reverse"}, {"measurement": "animals with mild atrophy of ONL (thinning to approximately 6-7 nuclei), Day 28", "setting": "[3]", "result": "one animal"}, {"measurement": "animals with minimal atrophy of ONL (thinning to approximately 7-8 nuclei), Day 28", "setting": "[3]", "result": "two animals"}, {"measurement": "animals with minimal degeneration of the rods and cones layer, Day 28", "setting": "[3]", "result": "six animals"}, {"measurement": "animals with moderate atrophy of ONL (thinning to approximately 4-5 nuclei), Day 28", "setting": "[3]", "result": "five animals"}, {"measurement": "animals with moderate degeneration of rod and cone processes, Day 28", "setting": "[3]", "result": "two animals"}, {"measurement": "animals with ocular (retinal) changes, Day 28", "setting": "200 mg/kg PO QD Days 1-14 (Group 5; Test Article 2, Schedule 2), 9 rats", "result": "retinal changes were observed in eight animals"}, {"measurement": "tolerability (body weight, clinical observations, deaths)", "setting": "female rats, 100 or 200 mg/kg PO QD for 7 or 14 days", "result": "well tolerated with no effects on body weight, adverse clinical observations or deaths related to test article"}]}]}
